From US10301267B2, “Compounds” (AstraZeneca AB, priority 2006, dated 2019)
Where two headings read alike, the source gives them in different places.

Assays:
[1] = molecular target: T1, His6-tagged FGFR kinase domain (Homo sapiens, UniProt P11362, C488A/C584S); assay: FGFR Kinase assay - Elisa; type: biochemical
T1 construct: FGFR kinase domain (amino acids 458-765, C488A, C584S) N-terminally fused to a His6-tag and TEV cleavage site; His6-tag plus linker and TEV cleavage site (printed as X1); made in house
Procedure: To determine inhibition of FGFR activity, kinase assays were conducted using ELISA (Enzyme-Linked Immunosorbent Assay) technology.
Kinase activity assays were performed in 384-well polypropylene plates (Matrix, Catalogue No. 4311. Matrix are part of Thermo Fisher Scientific, 22 Friars Drive, Hudson, N.H. 03051, USA) with a total volume of 40 μl in each well. Each well was coated with 2 μg of polyEAY substrate (Sigma, Catalogue No. P3899) at 4° C. overnight. The plates were then washed once with 100 μl PBS and once with 100 μl 50 mM HEPES (pH 7.4) prior to the addition of the kinase assay reagents. Reactions contained His6-tagged FGFR kinase domain (FGFR kinase domain (amino acids 458-765, C488A, C584S) N-terminally fused to a His6-tag and TEV cleavage site encoded by the following sequence; [[…]]. The final alanine denotes the start of the FGFR protein sequence. The resultant protein was expressed and purified based on Mohammadi et al, Cell Vol 86, 577-587 (1996). Each kinase reaction contained 0.1 ng His6-tagged FGFR kinase domain, 50 mM HEPES (pH 7.4), 0.1 mM Na3VO4, 0.1 mM DTT, 0.05% (v/v) Triton X100, 20 mM MgCl2, 160 μM ATP. Various concentrations of test compounds were each added in 5% (v/v) DMSO to yield a final assay DMSO concentration of 1.25% (v/v). The kinase reactions were incubated at room temperature for 45 minutes and stopped by washing the plate three times with 100 μl PBS plus 0.05% Tween. 40 μl of a one in 10000 dilution of 4G10-HRP antibody (Upstate Biotechnology, UBI 16-105. Upstate are part of Millipore Corporation, 290 Concord Road, Billerca Mass. 01821 USA) made up in 0.5% (w/v) BSA/PBS was then added to each well and the plates incubated at room temperature for one hour. Following this, the plates were then washed repeatedly with 100 μl PBS plus 0.05% Tween to remove all traces of the antibody solution. 40 μl of 50 μg/ml 3,3′,5,5′-Tetramethylbenzidine (Sigma, Catalogue No. T2885), 0.05M phosphate-citrate buffer, containing 0.03% sodium perborate was added to each well and the plates incubated at room temperature for twelve minutes. The colour reaction was stopped by the addition of 20 μl 2M H2SO4 and the plates read at 450 nm on a Spectrafluor Plus (Tecan Trading AG, Switzerland). In the assay, compounds were tested at a range of concentrations.
Percentage inhibition at 1 uM, as expressed herein, is a calculated value based on the curve fit that was generated experimentally. From the fitted curve plot, the effect of compound at a concentration of 1 uM was calculated as a percentage inhibition. The IC50 value is the concentration of test compound that inhibits 50% of FGFR kinase activity.

[2] = system: bFGF stimulated Erk phosphorylation in NIH 3T3 cells; assay: Cell pErk - growth factor stimulated Erk phosphorylation; type: cell-based; settings: Mus musculus
Description: Cell Assays Cell pErk—Growth Factor Stimulated Erk Phosphorylation
These and other assays were used to evaluate the ability of a test compound to inhibit growth factor stimulated cellular signalling in mammalian cell lines. This was achieved by measuring the amount of receptor tyrosine kinase regulated Erk phosphorylation within a cell following compound treatment.
NIH 3T3 (ECACC, 93061524) cells were routinely passaged in DMEM (Gibco BRL, 41966) plus 10% foetal calf serum (FCS), 1% L-glutamine (Gibco BRL, 25030) to a confluence not greater than 80%. To undertake the assay, NIH 3T3's were seeded at 1×10^4 cells/well in DMEM plus 10% foetal calf serum, 1% L-glutamine in 96 well plates (Costar, 3904) and incubated at 37° C. (+5% CO2) in a humidified incubator. Once the cells had fully adhered (typically following 4-5 hours incubation) the media was removed from each well and the cells gently washed with 100 μl warm serum free media. 90 μl of serum free DMEM plus 1% L-glutamine was then added to each well and the plates were returned to a humidified 37° C. (+5% CO2) incubator. The following day, the plates were dosed with 10 μl compound (diluted from 10 mM stock in DMSO using serum free DMEM) and the plates were returned to a humidified 37° C. (+5% CO2) incubator for one hour. NIH 3T3 cells were then stimulated with a final concentration of 3 ng/ml bFGF (Sigma, F0291) for 20 minutes at 37° C. Following stimulation the cells were fixed by adding formaldehyde (4% v/v final concentration) and incubating at room temperature for 20 minutes. The fixative solution was then removed and the wells were washed twice with 100 μl phosphate buffered saline (PBS/A) before permeabilising the cells by the addition of 50 μl/well 0.1% triton/PBS/A for 10 minutes at room temperature. The permeabilisation solution was then removed and the cells washed twice more with 100 μl/well PBS/A before the addition of 50 μl/well anti-phospho p44/42 antibody (Cell Signalling Technology, 9106), diluted 1/500 with PBS/A plus 10% FCS. The anti-phospho p44/42 antibody recognises Erk phosphorylated at threonine 202 and tyrosine 204. Following incubation at room temperature for 2 hours, the antibody solution was removed and the wells were washed twice with 100 μl/well PBS/A. 50 μl/well 1/250 goat anti-mouse alexa fluor 488 secondary antibody (Molecular Probes, A11001) and 1/10000 Hoescht (Molecular Probes, H-3570) diluted with PBS/A plus 10% FCS was added and the plate incubated in the dark at room temperature for one hour. Finally, the plates were washed three times with 100 μl/well PBS/A, leaving the final wash in the wells before sealing the plates. The plates were read at 350 nm and 488 nm using an Arrayscan (Cellomics). […] IC50 value is the concentration of test compound that inhibits 50% of Erk phosphorylation.

FGFR1 active kinase [3] = molecular target: T2, FGFR1 active kinase (Homo sapiens, UniProt P11362); assay: FGFR Kinase assay - Caliper; type: biochemical; for FGFR Kinase assay - Caliper, IC50: 408 µM ATP
FGFR1 active kinase [4] = molecular target: T2, FGFR1 active kinase; assay: FGFR Kinase assay - Caliper Echo Dosing; type: biochemical; settings: FGFR1 7.2 nM, 408 uM ATP, acoustic dosing; geometric mean of n
[5] = molecular target: T3, transiently expressed FGFR1 IIIc in Cos-1 cells (Homo sapiens, UniProt P11362); assay: Cell FGFR1 - cell based inhibition of transiently expressed FGFR1 IIIc phosphorylation; settings: phospho-FGFR1
T3 construct: The clone was full-length, wild-type FGFR1 IIIc isoform; host or cells: Cos-1
Description: Cell FGFR1—Cell Based Inhibition of Transiently Expressed FGFR1 IIIc Phosphorylation (Measured Using Phospho-Specific Primary and Fluorescent Secondary Antibodies).
This assay is designed to detect inhibitors of transiently expressed FGFR1 phosphorylation by antibody staining of fixed cells detected using ArrayScan technology. (For a description of Array Scan technology see http://www.cellomics.com/content/menu/Arrayscan/)
Cos-1 cells were routinely passaged in DMEM (Gibco BRL, 41966) plus 3% foetal calf serum (FCS), 1% L-glutamine (Gibco BRL, 25030) to a confluence of 80%. To undertake the assay, Cos-1 cells were harvested at 90-95% confluence for cell transfection. […]
The harvested Cos-1 cells are counted using a coulter counter and diluted further with 1% FCS/DMEM to 2.5×10^5 cells/ml. […]
Following incubation at room temperature for 1 hour, the antibody solution was removed and the wells were washed once with 200 ul/well PBS/A. Then 40 μl 1/500 secondary antibody (A111005; goat anti-mouse 594) solution and 1/10000 Hoechst (diluted together in PBS/A with 10% FCS+0.1% Tween 20) were added and the plate incubated in the dark at room temperature for one hour. […] The plates were read on an Arrayscan (Cellomics). […]

[6] = FGFR inhibition test, Elisa, read-out: Activity class (FGFR Kinase assay - Elisa)
[7] = polyEAY substrate, 160 μM ATP, read-out: FGFR Kinase assay - Elisa, IC50
[8] = NIH3T3, 3 ng/ml bFGF, read-out: Activity class (Cell pErk)
[9] = FGFR1 […], 408 uM ATP, mean of n as printed, read-out: FGFR Kinase assay - Caliper, IC50
[10] = FGFR inhibition test, Caliper, read-out: Activity class (FGFR Kinase assay - Caliper)

T2 sequence (P11362 22-822): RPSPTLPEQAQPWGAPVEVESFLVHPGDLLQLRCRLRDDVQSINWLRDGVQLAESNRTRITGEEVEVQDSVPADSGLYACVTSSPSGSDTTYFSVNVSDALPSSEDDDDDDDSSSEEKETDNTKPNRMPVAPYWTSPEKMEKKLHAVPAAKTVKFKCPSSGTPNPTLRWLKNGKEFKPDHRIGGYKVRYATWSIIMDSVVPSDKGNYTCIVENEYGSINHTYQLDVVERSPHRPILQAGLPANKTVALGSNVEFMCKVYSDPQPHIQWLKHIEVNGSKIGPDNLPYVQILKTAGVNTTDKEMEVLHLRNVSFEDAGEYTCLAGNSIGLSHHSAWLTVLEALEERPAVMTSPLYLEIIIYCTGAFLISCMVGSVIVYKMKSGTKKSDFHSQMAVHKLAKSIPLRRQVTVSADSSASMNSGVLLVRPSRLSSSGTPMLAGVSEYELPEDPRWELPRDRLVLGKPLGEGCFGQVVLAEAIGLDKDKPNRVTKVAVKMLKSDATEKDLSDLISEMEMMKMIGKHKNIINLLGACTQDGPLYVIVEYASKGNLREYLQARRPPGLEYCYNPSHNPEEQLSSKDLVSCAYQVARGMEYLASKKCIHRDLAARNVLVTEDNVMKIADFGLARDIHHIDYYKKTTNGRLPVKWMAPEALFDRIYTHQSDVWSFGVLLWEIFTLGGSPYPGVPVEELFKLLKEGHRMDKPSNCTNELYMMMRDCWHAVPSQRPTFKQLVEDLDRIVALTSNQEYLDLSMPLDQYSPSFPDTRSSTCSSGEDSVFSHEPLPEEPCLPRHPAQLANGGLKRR
T1 sequence (P11362 458-765 C488A/C584S): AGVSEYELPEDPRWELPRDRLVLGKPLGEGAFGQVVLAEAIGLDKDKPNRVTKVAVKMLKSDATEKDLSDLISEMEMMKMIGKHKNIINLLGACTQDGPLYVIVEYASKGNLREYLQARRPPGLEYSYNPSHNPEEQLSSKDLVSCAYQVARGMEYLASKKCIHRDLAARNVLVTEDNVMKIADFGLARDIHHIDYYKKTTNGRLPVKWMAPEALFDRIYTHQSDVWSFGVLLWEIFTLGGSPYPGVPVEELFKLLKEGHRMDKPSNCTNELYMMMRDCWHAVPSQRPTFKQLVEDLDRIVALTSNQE
T3 sequence (P11362 22-822): as the sequence (P11362 22-822) above

| IC50 [1, 6] | IC50 [1, 7] | IC50 (FGFR1 active kinase [3]; [9]) | IC50 (FGFR1 active kinase [3]; [10]) | IC50 (FGFR1 active kinase [4]) | IC50 [5] | Compound | IC50 [2, 8] | IC50 ([2]; NIH3T3, footnote example, read-out: Cell pErk, value in table footnote) |
| --- | --- | --- | --- | --- | --- | --- | --- | --- |
| < 0.3 µM | – | – | – | 0.00085 µM | – | COc1cc(CCc2cc(NC(=O)c3ccc(N4CCN(C)CC4)cc3)[nH]n2)cc(OC)c1 [Example 10, N-[5-[2-(3,5-dimethoxyphenyl)ethyl]-2H-pyrazol-3-yl]-4-(4-methylpiperazin-1-yl)benzamide] | < 0.3 µM | – |
| – | – | – | – | – | 1.47 µM | COc1cc(CCc2cc(NC(=O)c3ccc(CC(C)N)cc3)n[nH]2)cc(OC)c1 (stereo not drawn) [Example 49, 4-(2-Aminopropyl)-N-[5-[2-(3,5-dimethoxyphenyl)ethyl]-1H-pyrazol-3-yl]benzamide] | – | – |
| – | – | – | – | – | 0.46 µM | COc1cc(CCc2cc(NC(=O)c3ccc(OCCN4CCC(F)(F)CC4)cc3)n[nH]2)cc(OC)c1 [Example 55, 4-[2-(4,4-Difluoro-1-piperidyl)ethoxy]-N-[5-[2-(3,5-dimethoxyphenyl)ethyl]-1H-pyrazol-3-yl]benzamide] | – | – |

Second part, the molecule before the results:

| Compound | IC50 [1, 6] | IC50 [1, 7] | IC50 (FGFR1 active kinase [3]; [9]) | IC50 (FGFR1 active kinase [3]; [10]) | IC50 (FGFR1 active kinase [4]) | IC50 [5] | IC50 [2, 8] | IC50 ([2]; NIH3T3, footnote example, read-out: Cell pErk, value in table footnote) |
| --- | --- | --- | --- | --- | --- | --- | --- | --- |
| CN1CCN(c2ccc(C(=O)Nc3cc(CCc4ccccc4)n[nH]3)cc2)CC1 [Example 1, 4-(4-methylpiperazin-1-yl)-N-(5-phenethyl-2H-pyrazol-3-yl)benzamide] | < 0.3 µM | 0.22 µM | – | – | – | – | 0.3 to 1 µM | – |
| COc1cc(CCc2cc(NC(=O)c3ccccc3)[nH]n2)cc(OC)c1 [Example 2, N-[5-[2-(3,5-dimethoxyphenyl)ethyl]-2H-pyrazol-3-yl]benzamide] | – | – | 0.14 µM | – | – | – | < 0.3 µM | – |
| CN1CCN(c2ccc(C(=O)Nc3cc(CCc4cccnc4)n[nH]3)cc2)CC1 [Example 7, 4-(4-methylpiperazin-1-yl)-N-[5-(2-pyridin-3-ylethyl)-2H-pyrazol-3-yl]benzamide] | < 0.3 µM | – | 0.047 µM | < 0.3 µM | – | – | 1 to 30 µM | – |
| CN1CCN(c2ccc(C(=O)Nc3cc(CCc4ccco4)n[nH]3)cc2)CC1 [Example 8, N-[5-[2-(2-furyl)ethyl]-2H-pyrazol-3-yl]-4-(4-methylpiperazin-1-yl)benzamide] | < 0.3 µM | 0.0795 µM | – | < 0.3 µM | – | – | < 0.3 µM | – |
| CN1CCN(c2ccc(C(=O)Nc3cc(CCc4ccoc4)n[nH]3)cc2)CC1 [Example 9, N-[5-[2-(3-furyl)ethyl]-2H-pyrazol-3-yl]-4-(4-methylpiperazin-1-yl)benzamide] | < 0.3 µM | – | 0.137 µM | < 0.3 µM | – | – | 0.3 to 1 µM | – |
| COc1cccc(CCc2cc(NC(=O)c3ccc(N4CCN(C)CC4)cc3)[nH]n2)c1 [Example 11, N-[5-[2-(3-methoxyphenyl)ethyl]-2H-pyrazol-3-yl]-4-(4-methylpiperazin-1-yl)benzamide] | < 0.3 µM | 0.0828 µM | – | – | – | – | < 0.3 µM | – |
| CCNc1ccc(C(=O)Nc2cc(CCc3cccc(OC)c3)n[nH]2)cn1 [Example 18, 6-Ethylamino-N-{5-[2-(3-methoxy-phenyl)-ethyl]-2H-pyrazol-3-yl}-nicotinamide] | 0.3 to 1 µM | – | 0.54 µM | 0.3 to 1 µM | – | – | 0.3 to 1 µM | 0.877 µM |
